Earlier results on 1 substance are cited in US4603142A, “Cholesterol lowering method of use” (Wisconsin Alumni Research Foundation, priority 1984, dated 1986).

For the data set the following is noted: compared with tocotrienols; cited from earlier work.

Take Vitamin E: the Lowering of cholesterol entry was “does not cause a similar lowering of cholesterol”.
